Measurements as given in patent US8802597B2, “Herbicidal pyrimidines” (E I du Pont de Nemours and Company, priority 2003, dated 2014).

Experiments:
Format in all cases: in vivo
[1] = tested on: Surinam grass (Brachiaria decumbens); test: Test B pre/postemergence
Description: (§1) Seeds selected from barnyardgrass (Echinochloa crus-galli), Surinam grass (Brachiaria decumbens), cocklebur (Xanthium strumarium), corn (Zea mays), crabgrass (Digitaria sanguinalis), giant foxtail (Setaria faberii), lambsquarters (Chenopodium album), morningglory (Ipomoea coccinea), pigweed (Amaranthus retroflexus), velvetleaf (Abutilon theophrasti), and wheat (Triticum aestivum) were planted and treated preemergence with test chemicals formulated in a non-phytotoxic solvent mixture which included a surfactant.
(§2) At the same time, plants selected from these crop and weed species and also blackgrass (Alopecurus myosuroides) and wild oat (Avena fatua) were treated with postemergence applications of test chemicals formulated in the same manner. Plants ranged in height from 2 to 18 cm (1- to 4-leaf stage) for postemergence treatments. Plant species in the flooded paddy test consisted of rice (Oryza sativa), umbrella sedge (Cyperus difformis), duck salad (Heteranthera limosa) and barnyardgrass (Echinochloa crus-galli) grown to the 2-leaf stage for testing. Treated plants and controls were maintained in a greenhouse for 13 to 15 days, after which time all species were compared to controls and visually evaluated. Plant response ratings, summarized in Table B, are based on a scale of 0 to 100 where 0 is no effect and 100 is complete control. A dash (-) response means no test result.

[2] = tested on: barnyardgrass (Echinochloa crus-galli); test: Test B pre/postemergence
Description: as §1, §2

[3] = tested on: cocklebur (Xanthium strumarium); test: Test B pre/postemergence
Description: as §1, §2

corn (Zea mays) = test: Test B pre/postemergence
Description: as §1, §2

[4] = tested on: crabgrass (Digitaria sanguinalis); test: Test B pre/postemergence
Description: as §1, §2

[5] = tested on: giant foxtail (Setaria faberii); test: Test B pre/postemergence
Description: as §1, §2

[6] = tested on: lambsquarters (Chenopodium album); test: Test B pre/postemergence
Description: as §1, §2

[7] = tested on: morningglory (Ipomoea coccinea); test: Test B pre/postemergence
Description: as §1, §2

[8] = tested on: pigweed (Amaranthus retroflexus); test: Test B pre/postemergence
Description: as §1, §2

[9] = tested on: velvetleaf (Abutilon theophrasti); test: Test B pre/postemergence
Description: as §1, §2

[10] = tested on: wheat (Triticum aestivum); test: Test B pre/postemergence
Description: as §1, §2

[11] = tested on: blackgrass (Alopecurus myosuroides); test: Test B postemergence
Outline: (§3)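 Compounds in non-phytotoxic solvent with surfactant applied preemergence to planted seeds or postemergence to plants 2 to 18 cm tall (1- to 4-leaf stage). Greenhouse 13 to 15 days, then visual rating against controls on a 0 to 100 scale (100 = complete control).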

wild oat (Avena fatua) = test: Test B postemergence
Outline: as §3

[12] = tested on: barnyardgrass (Echinochloa crus-galli); test: Test B flooded paddy test; conditions: Flood, 1000 g ai/ha; scale 0 (no effect) to 100 (complete control)
Outline: (§4)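 Plants were grown to the 2-leaf stage before treatment, then kept in a greenhouse for 13 to 15 days. Injury was rated visually against untreated controls on a 0 to 100 scale, where 0 is no effect and 100 is complete control.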

[13] = tested on: duck salad (Heteranthera limosa); test: Test B flooded paddy test; conditions: Flood, 1000 g ai/ha; scale 0 to 100
Outline: as §4

rice (Oryza sativa) = test: Test B flooded paddy test; conditions: Flood, 1000 g ai/ha; scale 0 to 100
Outline: as §4

[14] = tested on: umbrella sedge (Cyperus difformis); test: Test B flooded paddy test; conditions: Flood, 1000 g ai/ha; scale 0 to 100
Outline: as §4

[15] = Postemergence, 125 g ai/ha, scale 0 to 100 (0 no effect, 100 complete control)
[16] = Postemergence, 500 g ai/ha, scale 0 to 100
[17] = Preemergence, 125 g ai/ha, scale 0 to 100 (0 no effect, 100 complete control)
[18] = Preemergence, 500 g ai/ha, scale 0 to 100 (0 no effect, 100 complete control)
[19] = 125 g ai/ha, scale 0 to 100 (0 no effect, 100 complete control)

CCOC(=O)c1nc(C2CC2)nc(NCCOC)c1Br [Compound 39]
Surinam Grass plant response rating [1, 15]: 0
Plant response rating, Surinam Grass [1, 16]: 30
Plant response rating, Surinam Grass [1, 17]: 0
Surinam Grass plant response rating [1, 18]: 0
Barnyardgrass plant response rating [2, 15]: 0
Plant response rating, Barnyardgrass [2, 16]: 70
Plant response rating, Barnyardgrass [2, 17]: 0
Barnyardgrass plant response rating [2, 18]: 20
Cocklebur plant response rating [3, 15]: 30
Plant response rating, Cocklebur [3, 16]: 50
Plant response rating, Cocklebur [3, 17]: 10
Cocklebur plant response rating [3, 18]: 30
Corn plant response rating (corn (Zea mays); [15]): 0
Plant response rating, Corn (corn (Zea mays); [16]): 50
Plant response rating, Corn (corn (Zea mays); [17]): 30
Corn plant response rating (corn (Zea mays); [18]): 50
Crabgrass plant response rating [4, 15]: 0
Plant response rating, Crabgrass [4, 16]: 40
Plant response rating, Crabgrass [4, 17]: 0
Crabgrass plant response rating [4, 18]: 50
Foxtail, Giant plant response rating [5, 15]: 0
Plant response rating, Foxtail, Giant [5, 16]: 30
Plant response rating, Foxtail, Giant [5, 17]: 0
Foxtail, Giant plant response rating [5, 18]: 20
Lambsquarters plant response rating [6, 15]: 70
Plant response rating, Lambsquarters [6, 16]: 90
Plant response rating, Lambsquarters [6, 17]: 50
Lambsquarters plant response rating [6, 18]: 100
Morningglory plant response rating [7, 15]: 80
Plant response rating, Morningglory [7, 16]: 100
Plant response rating, Morningglory [7, 17]: 30
Morningglory plant response rating [7, 18]: 70
Pigweed plant response rating [8, 15]: 50
Plant response rating, Pigweed [8, 16]: 70
Plant response rating, Pigweed [8, 17]: 70
Pigweed plant response rating [8, 18]: 100
Velvetleaf plant response rating [9, 15]: 40
Plant response rating, Velvetleaf [9, 16]: 70
Plant response rating, Velvetleaf [9, 17]: 0
Velvetleaf plant response rating [9, 18]: 30
Wheat plant response rating [10, 15]: 0
Plant response rating, Wheat [10, 16]: 0
Plant response rating, Wheat [10, 17]: 0
Plant response rating, Wheat [10, 18]: 10
Blackgrass plant response rating [11, 19]: 0
Plant response rating, Blackgrass ([11]; 500 g ai/ha, scale 0 to 100): 0
Oat, Wild plant response rating (wild oat (Avena fatua); [19]): 0
Plant response rating, Oat, Wild (wild oat (Avena fatua); 500 g ai/ha, scale 0 to 100): 0
Plant response rating, Barnyardgrass [12]: 0
Plant response rating, Ducksalad [13]: 0
Plant response rating, Rice (rice (Oryza sativa)): 0
Plant response rating, Sedge, Umbrella [14]: 0
